Laboratory results taken from US20110014174A1, “Lysozyme, A Novel Vasodilator of Sepsis that can be inhibited by a Peroxidase and Hydroxyl Radical Scavengers” (UNIVERSITY OF MANITOBA, priority 2007, published 2011).
Entries after “also recorded” stand apart in the source; their conditions may differ. Where two headings read alike, the source gives them in different places.

Columns and labels:
[1] = test system: Lzm-S-induced carotid artery vasodilation; test: Prevention of Lzm-S-induced vasodilation by pretreatment agents in the carotid artery ring preparation; design: species or system canine; conditions: for contraction after Lzm-S relative to the value post-L-NMMA treatment: L-NMMA 10^−3 mol/L treated group (n=8); for blockade of Lzm-S-induced vasodilation: comparison of hydroxyl radical scavengers with peroxidase
[2] = test system: phenylephrine contracted canine carotid artery ring preparation; test: Contraction force and vasorelaxation in phenylephrine contracted canine carotid artery ring preparation; conditions: for force after HEPES buffer was added: ethanol 2×10^−7 mol/L control group, HEPES buffer instead of Lzm-S; for contraction after Lzm-S relative to the value pre-Lzm-S treatment: non-L-NMMA treated group (n=12), human Lzm-S 6.7×10^−7 mol/L; for contraction after Lzm-S relative to the pre-Lzm-S contraction: non-indomethacin treated group (n=4)
[3] = pretreatment with the agent, human Lzm-S 6.7×10^−7 mol/L, phenylephrine contracted ring

Nc1ccncc1 [4-aminopyridine]
inhibition of Lzm-S-induced vasodilation (words) [1, 3]: none of these inhibitors prevented Lzm-S's vasodilatory response

O=C(O)CCC/C=C\C/C=C\C/C=C\C/C=C\CCCCCO [20-hydroxyeicosatetraenoic acid]
inhibition of Lzm-S-induced vasodilation (words) [1, 3]: none of these inhibitors prevented Lzm-S's vasodilatory response

CCN(CC)C(=S)S [DECTA, diethyldithiocarbamic acid]
inhibition of Lzm-S-induced vasodilation (words) [1, 3]: neither DECTA (10^−2 mol/L), deferoxamine methanesulfonate salt (10^−2 mol/L), nor the reducing agents N-acetylcysteine (10^−3 mol/L), ascorbic acid (10^−4 mol/L), and reduced-glutathione (10^−3 mol/L) were found to inhibit Lzm-S-induced vasodilation

OO [H2O2, hydrogen peroxide]
effect of H2O2 on force ([2]; 10^−4 mol/L): progressive vasorelaxation over time
effect of H2O2 on precontracted force ([2]; 10^−5 mol/L): minimal effect
effect of H2O2 on force ([2]; higher concentrations, 10^−3 to 10^−1 mol/L): an initial increase in force that was followed by vasorelaxation; also recorded: vasoconstriction that was rapidly followed by vasodilation
effect of H2O2 on force ([2]; lower concentrations, FIG. 8): vasorelaxation was produced

[Cl-].[K+] [KCl]
inhibition of Lzm-S-induced vasodilation (words) [1, 3]: none of these inhibitors prevented Lzm-S's vasodilatory response

CNC(=N)NCCC[C@H](N)C(=O)O [L-NMMA, N^G-monomethyl-L-arginine]
contraction with L-NMMA treatment ([2]; L-NMMA 10^−3 mol/L added after phenylephrine plateau, before Lzm-S): 8.1±3.5 grams
contraction after Lzm-S relative to the value post-L-NMMA treatment ([1]; human Lzm-S 6.7×10^−7 mol/L, 5 minutes): 37±22%
contraction after Lzm-S relative to the value post-L-NMMA treatment ([1]; human Lzm-S 6.7×10^−7 mol/L, 15 minutes): 13±16%
contraction after Lzm-S relative to the value post-L-NMMA treatment ([1]; human Lzm-S 6.7×10^−7 mol/L, 30 minutes, minus = below resting force): −0.3±1%
inhibition of Lzm-S-induced vasodilation (words) [1, 3]: did not inhibit lysozyme induced vasodilation; also recorded: did not Prevent Vasodilation

O=C1C(Nc2ccccc2)=CC(=O)c2ncccc21 [LY 83583, 6-anilino-5,8-quinolinequinone]
inhibition of Lzm-S-induced vasodilation (words) [1, 3]: prevented lysozyme induced vasdodilation; also recorded: found to inhibit Lzm-S's effect

CC(=O)N[C@@H](CS)C(=O)O [N-acetylcysteine]
inhibition of Lzm-S-induced vasodilation (words) [1, 3]: neither DECTA (10^−2 mol/L), deferoxamine methanesulfonate salt (10^−2 mol/L), nor the reducing agents N-acetylcysteine (10^−3 mol/L), ascorbic acid (10^−4 mol/L), and reduced-glutathione (10^−3 mol/L) were found to inhibit Lzm-S-induced vasodilation

O=c1onc2cnc3ccccc3n12 [ODQ, 1H-[1,2,4]oxadiazolo[4,3-a]quinoxalin-1-one]
inhibition of Lzm-S-induced vasodilation (words) [1, 3]: prevented lysozyme induced vasdodilation; also recorded: found to inhibit Lzm-S's effect

Nc1ncnc2c1ncn2C1CCCO1 (stereo not drawn) [SQ 22, 536]
inhibition of Lzm-S-induced vasodilation (words) [1, 3]: none of these inhibitors prevented Lzm-S's vasodilatory response

O=C1O[C@H]([C@@H](O)CO)C(O)=C1O [ascorbic acid]
inhibition of Lzm-S-induced vasodilation (words) [1, 3]: neither DECTA (10^−2 mol/L), deferoxamine methanesulfonate salt (10^−2 mol/L), nor the reducing agents N-acetylcysteine (10^−3 mol/L), ascorbic acid (10^−4 mol/L), and reduced-glutathione (10^−3 mol/L) were found to inhibit Lzm-S-induced vasodilation

CN1[C@@H]2CC[C@H]1C[C@@H](OC(=O)C(CO)c1ccccc1)C2 (stereo partly drawn) [atropine]
inhibition of Lzm-S-induced vasodilation (words) [1, 3]: none of these inhibitors prevented Lzm-S's vasodilatory response

CC(=O)N[C@H]1[C@H](O[C@H]2[C@H](O)[C@@H](NC(C)=O)C(O)O[C@@H]2CO)O[C@H](CO)[C@@H](O)[C@@H]1O (stereo partly drawn) [chitobiose, N,N′-diacetylchitobiose]
inhibition of Lzm-S-induced vasodilation (words) [1, 3]: did not block Lzm-S's vasodilatory response

CC(=O)N[C@H]1[C@H](O[C@H]2[C@H](O)[C@@H](NC(C)=O)C(O)O[C@@H]2CO)O[C@H](CO)[C@@H](O[C@@H]2O[C@H](CO)[C@@H](O)[C@H](O)[C@H]2NC(C)=O)[C@@H]1O (stereo partly drawn) [chitotriose, N,N′,N″-triacetylchitotriose]
inhibition of Lzm-S-induced vasodilation (words) [1, 3]: did not block Lzm-S's vasodilatory response

CN(C)CCOC(c1ccccc1)c1ccccc1.Cl [dipheniramine hydrochloride]
inhibition of Lzm-S-induced vasodilation (words) [1, 3]: none of these inhibitors prevented Lzm-S's vasodilatory response

CCO [ethanol]
force after HEPES buffer was added ([2]; 5 minutes): 10.7±2.8 grams
force after HEPES buffer was added ([2]; 15 minutes): 11±2.8 grams
force after HEPES buffer was added ([2]; 30 minutes): 11±2.6 grams
contraction with ethanol as compared with the phenylephrine contraction alone ([2]; ethanol treated control group, ethanol highest concentration 2×10^−7 mol/L, before HEPES buffer): 10±2.6 grams
initial effect of ethanol on force ([2]; higher concentrations of ethanol, before Lzm-S): initial vasoconstriction
inhibition of Lzm-S-induced vasodilation (words) [1, 3]: inhibited the effect of lysozyme
inhibition of Lzm-S-induced vasodilation (words) ([1]; pretreatment with the agent, human Lzm-S 6.7×10^−7 mol/L, phenylephrine contracted ring, listed as Ethanol): markedly effective

Oc1ccc(O)cc1 [hydroquinone]
blockade of Lzm-S-induced vasodilation [1]: 60%
inhibition of Lzm-S-induced vasodilation (words) [1, 3]: inhibited the vasodilatory effect of lysozyme
inhibition of Lzm-S-induced vasodilation (words) ([1]; pretreatment with the agent, human Lzm-S 6.7×10^−7 mol/L, phenylephrine contracted ring, listed as hydroxyquinone): inhibitory effect

OC[C@@H](O)[C@@H](O)[C@H](O)[C@H](O)CO [mannitol]
blockade of Lzm-S-induced vasodilation [1]: 60%
inhibition of Lzm-S-induced vasodilation (words) [1, 3]: inhibited the vasodilatory effect of lysozyme; also recorded: inhibitory effect

CN(C)c1ccc2nc3ccc(=[N+](C)C)cc-3sc2c1 [methylene blue]
inhibition of Lzm-S-induced vasodilation (words) [1, 3]: inhibited the effect of lysozyme; also recorded: prevented lysozyme induced vasdodilation; also recorded: found to inhibit Lzm-S's effect

CNC[C@H](O)c1cccc(O)c1 [phenylephrine]
phenylephrine response ([2]; endothelial denuded preparation): 7.1±0.5 grams
phenylephrine response ([2]; endothelial intact preparation): 6.7±0.7 grams
phenylephrine contraction alone ([2]; ethanol treated control group, baseline before ethanol): 8.2±2.6 grams
mean increase in contraction from resting force with phenylephrine ([2]; indomethacin treated group): 7.5±1.4 grams
mean increase in force from resting tension with phenylephrine ([2]; non-indomethacin time control group): 6.9±2.7 grams
mean increase in resting force caused by phenylephrine ([2]; phenylephrine 10^−5 mol/L, L-NMMA treated group): 6.2±2.4 grams
mean increase in contraction from resting force caused by phenylephrine ([2]; phenylephrine 10^−5 mol/L, non-L-NMMA treated group): 7.1±2.1 grams

CC(C)NCC(O)COc1cccc2ccccc12 (stereo not drawn) [propranolol]
inhibition of Lzm-S-induced vasodilation (words) [1, 3]: none of these inhibitors prevented Lzm-S's vasodilatory response

N[C@@H](CCC(=O)N[C@@H](CS)C(=O)NCC(=O)O)C(=O)O [reduced-glutathione, reduced glutathione]
inhibition of Lzm-S-induced vasodilation (words) [1, 3]: neither DECTA (10^−2 mol/L), deferoxamine methanesulfonate salt (10^−2 mol/L), nor the reducing agents N-acetylcysteine (10^−3 mol/L), ascorbic acid (10^−4 mol/L), and reduced-glutathione (10^−3 mol/L) were found to inhibit Lzm-S-induced vasodilation

CC[N+](CC)(CC)CC [tetraethylammonium]
inhibition of Lzm-S-induced vasodilation (words) [1]: none of these inhibitors prevented Lzm-S's vasodilatory response

charybdotoxin
inhibition of Lzm-S-induced vasodilation (words) [1, 3]: none of these inhibitors prevented Lzm-S's vasodilatory response

deferoxamine methanesulfonate salt
inhibition of Lzm-S-induced vasodilation (words) [1, 3]: neither DECTA (10^−2 mol/L), deferoxamine methanesulfonate salt (10^−2 mol/L), nor the reducing agents N-acetylcysteine (10^−3 mol/L), ascorbic acid (10^−4 mol/L), and reduced-glutathione (10^−3 mol/L) were found to inhibit Lzm-S-induced vasodilation

guanosine 3′,5′-cyclic monophosphorothioate, β-phenyl-1,N^2-etheno-8-bromo-Rp-isomer, sodium salt [PKG inhibitor]
inhibition of Lzm-S-induced vasodilation (words) ([1]; pretreatment with the agent, human Lzm-S 6.7×10^−7 mol/L, phenylephrine contracted ring, listed as protein kinase G inhibitor, sodium salt): prevented lysozyme induced vasdodilation
inhibition of Lzm-S-induced vasodilation (words) ([1]; pretreatment with the agent, human Lzm-S 6.7×10^−7 mol/L, phenylephrine contracted ring, sodium salt): found to inhibit Lzm-S's effect

iberiotoxin: used for inhibition of potassium channels (QFTDVDCSVSKECWSVCKDLFGVDRGKCMGKKCRCYQ; Iberiotoxin; UniProt P24663 1-37, looked up)
inhibition of Lzm-S-induced vasodilation (words) [1, 3]: none of these inhibitors prevented Lzm-S's vasodilatory response

B1: human Lzm-S: Human lysozyme purchased from EMD Biosciences; used in all experiments after the initial ones (protein, UniProt P61626 19-148, looked up)
Lysozyme C: KVFERCELARTLKRLGMDGYRGISLANWMCLAKWESGYNTRATNYNAGDRSTDYGIFQINSRYWCNDGKTPGAVNACHLSCSALLQDNIADAVACAKRVVRDPQGIRAWVAWRNRCQNRDVRQYVQGCGV
vasorelaxation in the carotid artery preparation (mean values) ([2]; FIG. 2 mean values): significant vasorelaxation
contraction after Lzm-S, % of the phenylephrine plateau ([2]; endothelium denuded preparation (n=4), 5 minutes): 79±18%
contraction after Lzm-S, % of the phenylephrine plateau ([2]; endothelium denuded preparation (n=4), 15 minutes): 58±21%
contraction after Lzm-S, % of the phenylephrine plateau ([2]; endothelium denuded preparation (n=4), 30 minutes): 54±20%
contraction after Lzm-S, % of the phenylephrine plateau ([2]; endothelium intact preparation (n=4), 5 minutes): 64±25%
contraction after Lzm-S, % of the phenylephrine plateau ([2]; endothelium intact preparation (n=4), 15 minutes): 53±33%
contraction after Lzm-S, % of the phenylephrine plateau ([2]; endothelium intact preparation (n=4), 30 minutes): 76±21%
constriction after lysozyme relative to the phenylephrine value ([2]; example traces FIG. 1, phenylephrine constricted carotid ring): about 40%
vasodilatory effect ([2]; human Lzm-S 3.3×10^−7 mol/L): minimal vasodilatory effect
reduction in contraction ([2]; human Lzm-S higher concentration (6.7×10^−7 mol/L)): nearly eliminated the increase in force induced by phenylephrine
contraction after Lzm-S relative to the value pre-Lzm-S treatment ([2]; 5 minutes): 23±24%
contraction after Lzm-S relative to the value pre-Lzm-S treatment ([2]; 15 minutes): 8±27%
contraction after Lzm-S relative to the value pre-Lzm-S treatment ([2]; 30 minutes): 2±34%
contraction after Lzm-S relative to the pre-Lzm-S contraction ([2]; 5 minutes): 71±16%
contraction after Lzm-S relative to the pre-Lzm-S contraction ([2]; 15 minutes): 45±19%
contraction after Lzm-S relative to the pre-Lzm-S contraction ([2]; 30 minutes): 19±15%
